Source: US5677309A (priority 1996, dated 1997)
Where a name gives a salt, the structure may show the parent alone.

Key:
[1] = target: GABAa receptor (benzodiazepines (BDZ) receptor); test: GABAa receptor (benzodiazepine receptor) binding assay, 3H-RO15-1788 [3H-Flumazenil] displacement in rat cortical tissue; details: 0.5 nM 3H-RO15-1788, 30 min at 4° C., pH 7.4
benzodiazepine receptor [2] = details: Hunkeler et al., 1981; cited from earlier work
benzodiazepine receptor [3] = details: in animals and humans; by itself; cited from earlier work

`CN(C)Cc1ccc(-n2nc3n(c2=O)CNc2ccccc2-3)cc1` [Compound 21, 2-[4-(N,N-dimethylaminomethyl)phenyl]-5,6-dihydro-1,2,4-triazolo-[4,3-c]quinazolin-3-one hydrochloride] gave a Ki [1] of 53 nM.
In the case of `O=c1[nH]c2ccccc2c2nn(-c3ccccn3)c(=O)n12` [Compound 5, 2-(2-Pyridyl)-5,6-dihydro-5-oxo-[6H]-1,2,4-triazolo[4,3-c]quinazolin-3-one], the Ki [1] is reported as 7.6 nM.
`O=c1[nH]c2c(c3nn(-c4ccccc4)c(=O)n13)CCCC2` [Compound 30, 2-phenyl-5,6-dihydro-5-oxo-[6H]-7,8,9,10-tetrahydro-1,2,4-triazolo[4,3-c]-quinazolin-3-one] showed a Ki [1] of 4.5 nM.
For imidazo[1,5-a][1,4]benzodiazepine, the “inhibition of benzodiazepine and beta-carboline binding” value (benzodiazepine receptor [2]) is given as “high affinity competitive inhibitor” and the intrinsic pharmacological activity (benzodiazepine receptor [3]) is given as “little intrinsic pharmacological activity”.
`O=c1n(-c2ccccc2)nc2n1CNC1=C2CCCC1` [Compound 31, 2-phenyl-5,6,7,8,9,10-hexahydro-1,2,4-triazolo[4,3-c]-quinazolin-3-one] showed a Ki [1] of 8 nM.
In the case of `O=c1n(-c2ccccn2)nc2n1CNc1ccccc1-2` [Compound 13, 2-(2-Pyridyl)-5,6-dihydro-1,2,4-triazolo[4,3-c]quinazolin-3-one], the Ki [1] is reported as 63 nM.
For `O=c1n(-c2ccccc2)nc2n1CNc1ccccc1-2` [Compound 2, 2-phenyl-5,6-dihydro-1,2,4-triazolo[4,3-c]quinazolin-3-one], the Ki [1] was 12 nM.
Work on `O=c1[nH]c2ccccc2c2nn(-c3ccccc3)c(=S)n12` [Compound 28, 2-phenyl-5,6-dihydro-5-oxo-6[H]-1,2,4-triazolo[4,3-c]quinazolin-3-thione] yielded a Ki [1] of 4.5 nM.
`S=c1n(-c2ccccc2)nc2n1CNc1ccccc1-2` [Compound 29, 2-phenyl-5,6-dihydro-1,2,4-triazolo[4,3-c]quinazolin-3-thione] gave a Ki [1] of 636 nM.
With `O=c1[nH]c2ccccc2c2nn(-c3ccccc3)c(=O)n12` [Compound 1, 2-phenyl-5,6-dihydro-5-oxo-[6H]-1,2,4-triazolo[4,3-c]quinazolin-3-one] the Ki [1] was 5.9 nM.
